Measurements as given in patent US9714244B2, “Substituted pyrido[4,3-d]pyrimidines as Wee-1 inhibitors” (ALMAC DISCOVERY LIMITED, priority 2013, dated 2017).
Structures can show the parent of a compound that is named as a salt. Where two headings read alike, the source gives them in different places.

Experiments:
[1] = biological target: Wee-1 kinase (Homo sapiens (Human), UniProt P30291); assay: Measurement of Wee-1 kinase activity (ADP-Glo); format: biochemical
Experimental: Method 1: Measurement of Wee-1 kinase activity
In the measurement of Wee-1 activity, a commercial peptide Poly(Lys Tyr(4:1)) hydrobromide was purchased from Sigma Aldrich and used as the substrate. Activated Wee-1 kinase was purchased from Invitrogen (PV3817) and an ADP-Glo luminescent kit was purchased from Promega.
All reactions took place in […] volumes in reaction buffer containing 40 mM Tris-HCl and 20 mM magnesium chloride, supplemented with 0.1 mg/mL bovine serum albumin and 2 mM DTT. Compounds were serially diluted in buffer and 5 μL of each concentration pipetted into a white 384 well plate (Sigma Aldrich M6186). A 5 μL aliquot of the Wee-1 enzyme was added to each well and the plate centrifuged for 1 min to ensure mixing of the enzyme and inhibitor.
The plate was incubated at room temperature for 30 minutes before the addition of 2.0 μg/mL of substrate and 30 μM ATP in a 5 μL aliquot. The plate was centrifuged for one minute and incubated for 1 h at RT.
15 μL of ADP-Glo stop reagent was added to each well to quench the reaction and deplete unconverted ATP. The plate was incubated for a further 40 min in the dark at RT.
30 μL of ADP-Glo kinase detection reagent was added to each well, converting ADP to ATP, catalysing the generation of luciferin by luciferase. The plate was shaken for 1 min, and incubated in the dark for an additional hour.
Luminescence from each well was detected using the Biotek Synergy4 HD plate reader and the percentage inhibition of kinase activity calculated for each inhibitor tested. Positive (kinase only) and negative (no kinase) controls were added to each plate to ensure specific interaction of kinase and inhibitor. The IC50 concentration for each inhibitor was calculated by plotting the percentage kinase inhibition against concentration of inhibitor and the curve generated by non-linear regression fitting.

[2] = tested on: phospho-cdc2 (Tyr15) in HT-29 cells; assay: Effect on phosphorylation of cdc2 at Tyr15 in HT-29 cells (PathScan ELISA); format: cell-based; conditions: Homo sapiens, HT-29, 8 h; HT29 cells, eight hours incubation; read-out: HT29 pCDC2 activity
Experimental: Method 2: Determining the effect of compounds on the phosphorylation of cdc2 at Tyr15
The colorectal cancer cell lines HT-29 and HCT-116 were purchased from the ATCC and routinely maintained in McCoy's Medium (Invitrogen) supplemented with 10% Foetal Calf Serum.
The cells were trypsinised from their growing vessel and counted, 100 μL of cell suspension containing 6000 cells was pipetted into black 96 well Co-star plates and incubated overnight to allow adherence to the surface at a temperature of 37° C. and an atmosphere of 5% CO2. Test compounds were formulated in DMSO and diluted in foetal calf serum supplemented medium. Incubating medium was removed by aspiration and diluted drug supplemented medium added to each well.
The plate was returned to the incubator for an additional eight hours at 37° C. and an atmosphere of 5% CO2. Post incubation, the drug supplemented medium was aspirated from each well and the cells were washed once in ice-cold phosphate buffered saline (PBS). 100 μL of cell lysis buffer (Cell Signalling Technologies #9803) containing 20 mM Tris, 150 mM NaCl, 1 mM EDTA, 1 mM EGTA, 1% Triton-X100, 2.5 mM sodium pyrophosphate, 1 mM glycerophosphate, 1 mM Na3VO4 and 1 μg/mL leupeptin was added to each well of the 96 well plate and incubated at 4° C. for 30 min. The samples on the plate were snap frozen at −80° C. until required.
Immediately before the continuation of the assay, the sample plate was thawed and centrifuged at 4° C. for 10 min and the supernatant transferred to secondary tubes or 96 well plate.
Cell supernatant was mixed in a ratio of 1:1 with sample dilutent buffer and vortexed for one minute. 100 μL of diluted sample was pipetted into pre-coated plates containing a rabbit polyclonal antibody for phospho-cdc2 (Tyr15) (Cell Signalling Technologies PathScan kit #7176). The plate was sealed and incubated overnight at 4° C.
The plate seal was removed and the well contents aspirated, followed by 3×5 min washes with 200 μL of diluted wash buffer. Between each wash the plate was tapped firmly onto blotting paper to ensure the removal of all kit solution. 100 μL of kit detection antibody was added to each well and the plate re-sealed and incubated at 37° C. for 1 h. Post incubation the plate was washed and processed in a similar manner to that previously described.
100 μL of horseradish peroxidise-linked secondary antibody was added to each test well, the plate sealed and incubated for thirty minutes at 37° C. Post incubation, the plate was washed as previously stated, followed by the addition of 100 μL of 3,3′,5,5′ tetramethylbenzidine (TMB reagent). The plate was sealed and incubated at RT for 30 min.
100 μL of stop solution was added to each well and the underside of the plate wiped with a lint-free tissue, prior to spectrophotometric determination. Absorbance from each well was read at 450 nm within 30 min of the addition of the stop solution.
The percentage of phospho-cdc2 was calculated compared to DMSO control and plotted versus the concentration of inhibitor using GraphPad Prism. Data was fitted using non-linear regression analysis and IC50 values generated.

[3] = biological target: human ether a go-go related gene (hERG) K+ channel (Homo sapiens (Human), UniProt Q12809); assay: hERG inhibition, IonWorks patch clamp electrophysiology; format: cell-based; conditions: 8-point curve from 11 μM
Sequence of human ether a go-go related gene (hERG) K+ channel (Q12809 whole entry): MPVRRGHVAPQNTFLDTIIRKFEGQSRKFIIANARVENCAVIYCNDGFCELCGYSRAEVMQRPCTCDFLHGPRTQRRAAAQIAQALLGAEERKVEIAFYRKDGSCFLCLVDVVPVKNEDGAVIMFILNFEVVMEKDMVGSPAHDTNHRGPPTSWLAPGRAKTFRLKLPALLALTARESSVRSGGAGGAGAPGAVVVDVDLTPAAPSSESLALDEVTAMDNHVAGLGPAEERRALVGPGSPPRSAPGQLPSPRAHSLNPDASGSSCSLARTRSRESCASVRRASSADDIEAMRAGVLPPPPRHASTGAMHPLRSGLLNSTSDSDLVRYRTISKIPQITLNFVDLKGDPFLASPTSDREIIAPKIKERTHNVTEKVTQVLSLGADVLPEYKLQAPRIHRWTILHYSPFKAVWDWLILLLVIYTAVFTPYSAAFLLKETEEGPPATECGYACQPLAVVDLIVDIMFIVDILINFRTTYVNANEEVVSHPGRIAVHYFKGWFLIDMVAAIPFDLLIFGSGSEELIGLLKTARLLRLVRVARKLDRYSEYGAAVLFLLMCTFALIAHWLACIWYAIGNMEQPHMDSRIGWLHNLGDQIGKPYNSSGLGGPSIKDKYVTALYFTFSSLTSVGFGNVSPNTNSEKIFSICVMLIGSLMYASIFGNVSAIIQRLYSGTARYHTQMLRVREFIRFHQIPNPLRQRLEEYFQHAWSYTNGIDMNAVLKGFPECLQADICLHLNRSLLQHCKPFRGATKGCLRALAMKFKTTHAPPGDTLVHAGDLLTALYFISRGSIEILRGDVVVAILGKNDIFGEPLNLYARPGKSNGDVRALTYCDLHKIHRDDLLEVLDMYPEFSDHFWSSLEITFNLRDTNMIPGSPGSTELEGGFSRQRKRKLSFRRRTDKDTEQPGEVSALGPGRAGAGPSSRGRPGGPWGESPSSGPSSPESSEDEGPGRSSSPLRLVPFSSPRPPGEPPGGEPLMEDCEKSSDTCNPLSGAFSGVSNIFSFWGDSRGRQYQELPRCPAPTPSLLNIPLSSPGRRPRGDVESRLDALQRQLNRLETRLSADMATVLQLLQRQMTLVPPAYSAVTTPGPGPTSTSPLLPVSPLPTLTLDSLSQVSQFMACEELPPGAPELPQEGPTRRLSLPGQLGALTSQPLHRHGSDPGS
Experimental: Compounds were tested for inhibition of the human ether a go-go related gene (hERG) K^+ channel using IonWorks patch clamp electrophysiology at Essen BioScience.

[4] = CLint estimates using human liver microsomes; format: in vitro ADME; conditions: pH 7.4, read-out: HLM activity (HLM CLint)
Experimental: Method for the Determination of CLint Estimates Using Human Liver Microsomes
Test compounds (final concentration=1 μM; final DMSO concentration=0.1%) were incubated in 0.1M phosphate buffer pH 7.4 with human liver microsomes (0.5 mg of protein/mL) at 37° C. Reactions were started by addition of NADPH in 0.1M phosphate buffer pH 7.4 (final concentration 1 mM). 40 μL aliquots were removed at 2, 5, 10, 15, 20, 30, 40 and 50 min. Reactions were quenched in 80 μL of ice-cold methanol. Samples were subsequently frozen overnight then centrifuged at 3500 rpm for 20 min at 4° C. The supernatants were removed and transferred into analytical plates and analysed by LC/MS/MS.
All samples were analysed on a Waters Acquity I-Class coupled to a Waters Xevo TQD mass spectrometer. A Waters BEH C18 2.1×50 mm 1.7 μm column was used and mobile phases were water and methanol containing 0.1% formic acid as modifier. Analysis was by multiple reaction monitoring and conditions were optimised for each test compound.
From a plot of ln peak area against time, the gradient of the line is determined. Subsequently, half-life and intrinsic clearance are calculated using the following equations.

[5] = Rat hepatocyte assay CLint; format: in vitro ADME; conditions: hepatocytes
Experimental: (§1) Compounds of the present invention have good stability in human and/or rat hepatocyte incubations. In particular, representative examples 7, 8, 13, 18, 20 have CLint of <20 μL/min/10^6 cells in a human hepatocyte assay and/or <40 μL/min/10^6 cells in a rat hepatocyte assay.

[6] = Oral bioavailability in rat; conditions: in vivo
Text: Compounds of the present invention are orally bioavailable.

[7] = Human hepatocyte assay CLint; format: in vitro ADME; conditions: hepatocytes
Experimental: as §1

[8] = biological target: CYP3A4 (Homo sapiens (Human), UniProt P08684); assay: Time dependent CYP inhibition: CYP3A4; format: in vitro ADME; conditions: 30 min pre incubation ±NADPH relative to direct inhibition IC50 with no pre-incubation
Sequence of CYP3A4 (P08684 whole entry): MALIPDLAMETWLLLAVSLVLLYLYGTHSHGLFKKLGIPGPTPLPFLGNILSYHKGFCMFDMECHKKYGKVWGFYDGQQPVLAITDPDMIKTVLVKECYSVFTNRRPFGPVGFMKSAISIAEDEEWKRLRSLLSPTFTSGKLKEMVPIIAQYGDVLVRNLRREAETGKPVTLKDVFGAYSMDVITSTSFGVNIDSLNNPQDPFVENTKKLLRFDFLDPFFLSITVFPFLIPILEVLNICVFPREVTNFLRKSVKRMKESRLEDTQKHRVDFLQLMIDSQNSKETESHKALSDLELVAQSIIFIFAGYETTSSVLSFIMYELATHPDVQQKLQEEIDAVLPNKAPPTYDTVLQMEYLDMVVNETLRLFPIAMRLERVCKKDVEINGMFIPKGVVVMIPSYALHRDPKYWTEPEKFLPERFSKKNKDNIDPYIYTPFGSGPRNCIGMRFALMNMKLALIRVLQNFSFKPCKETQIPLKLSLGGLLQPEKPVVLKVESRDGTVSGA
Text: (§2) Compounds of the present invention have no time dependent CYP inhibition.

[9] = biological target: CYP2C19 (Homo sapiens (Human), UniProt P33261); assay: Time dependent CYP inhibition: CYP2C19; format: in vitro ADME; conditions: 30 min pre incubation ±NADPH relative to direct inhibition IC50 with no pre-incubation
Sequence of CYP2C19 (P33261 whole entry): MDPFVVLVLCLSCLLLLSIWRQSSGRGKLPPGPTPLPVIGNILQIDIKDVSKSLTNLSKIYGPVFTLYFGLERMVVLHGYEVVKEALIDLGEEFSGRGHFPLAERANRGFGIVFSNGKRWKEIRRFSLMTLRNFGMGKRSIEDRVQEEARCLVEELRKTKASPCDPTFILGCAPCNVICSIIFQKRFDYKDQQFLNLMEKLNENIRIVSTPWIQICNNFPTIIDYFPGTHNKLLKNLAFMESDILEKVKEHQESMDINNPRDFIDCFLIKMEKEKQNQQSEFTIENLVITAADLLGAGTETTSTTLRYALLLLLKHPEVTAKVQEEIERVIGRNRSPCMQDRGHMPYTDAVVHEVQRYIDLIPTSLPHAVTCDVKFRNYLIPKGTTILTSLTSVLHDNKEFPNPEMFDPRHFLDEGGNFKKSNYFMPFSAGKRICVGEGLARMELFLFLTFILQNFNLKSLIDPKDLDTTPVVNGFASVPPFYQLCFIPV
Text: as §2

[10] = biological target: CYP2C9 (Homo sapiens (Human), UniProt P11712); assay: Time dependent CYP inhibition: CYP2C9; format: in vitro ADME; conditions: 30 min pre incubation ±NADPH relative to direct inhibition IC50 with no pre-incubation
Sequence of CYP2C9 (P11712 whole entry): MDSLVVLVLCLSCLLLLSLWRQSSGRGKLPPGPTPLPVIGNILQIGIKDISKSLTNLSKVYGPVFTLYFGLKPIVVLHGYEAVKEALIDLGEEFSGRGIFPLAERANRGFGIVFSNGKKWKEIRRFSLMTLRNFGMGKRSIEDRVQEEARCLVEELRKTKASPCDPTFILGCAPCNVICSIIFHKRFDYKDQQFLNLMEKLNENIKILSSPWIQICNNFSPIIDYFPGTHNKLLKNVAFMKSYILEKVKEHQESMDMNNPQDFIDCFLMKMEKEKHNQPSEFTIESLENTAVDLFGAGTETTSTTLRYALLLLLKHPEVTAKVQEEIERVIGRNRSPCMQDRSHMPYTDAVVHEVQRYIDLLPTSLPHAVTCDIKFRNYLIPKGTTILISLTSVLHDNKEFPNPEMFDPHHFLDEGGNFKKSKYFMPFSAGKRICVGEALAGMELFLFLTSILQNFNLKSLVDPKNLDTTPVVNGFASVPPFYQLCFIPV
Text: as §2

[11] = biological target: CYP2D6 (Homo sapiens (Human), UniProt P10635); assay: Time dependent CYP inhibition: CYP2D6; format: in vitro ADME; conditions: 30 min pre incubation ±NADPH relative to direct inhibition IC50 with no pre-incubation
Sequence of CYP2D6 (P10635 whole entry): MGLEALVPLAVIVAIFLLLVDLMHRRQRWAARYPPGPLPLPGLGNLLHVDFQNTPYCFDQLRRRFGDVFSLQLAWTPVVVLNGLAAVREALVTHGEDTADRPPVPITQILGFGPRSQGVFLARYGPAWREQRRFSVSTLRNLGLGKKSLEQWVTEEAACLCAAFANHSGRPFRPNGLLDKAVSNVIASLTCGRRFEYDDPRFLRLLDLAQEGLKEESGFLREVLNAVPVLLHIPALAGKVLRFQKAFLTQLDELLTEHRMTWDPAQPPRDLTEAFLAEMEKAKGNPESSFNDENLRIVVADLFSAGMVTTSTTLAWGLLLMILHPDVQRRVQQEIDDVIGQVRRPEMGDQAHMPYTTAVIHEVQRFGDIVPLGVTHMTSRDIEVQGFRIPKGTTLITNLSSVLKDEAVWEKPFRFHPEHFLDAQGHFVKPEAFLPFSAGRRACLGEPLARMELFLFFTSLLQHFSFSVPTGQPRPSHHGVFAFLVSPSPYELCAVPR
Text: as §2

Sequence of Wee-1 kinase (P30291 whole entry): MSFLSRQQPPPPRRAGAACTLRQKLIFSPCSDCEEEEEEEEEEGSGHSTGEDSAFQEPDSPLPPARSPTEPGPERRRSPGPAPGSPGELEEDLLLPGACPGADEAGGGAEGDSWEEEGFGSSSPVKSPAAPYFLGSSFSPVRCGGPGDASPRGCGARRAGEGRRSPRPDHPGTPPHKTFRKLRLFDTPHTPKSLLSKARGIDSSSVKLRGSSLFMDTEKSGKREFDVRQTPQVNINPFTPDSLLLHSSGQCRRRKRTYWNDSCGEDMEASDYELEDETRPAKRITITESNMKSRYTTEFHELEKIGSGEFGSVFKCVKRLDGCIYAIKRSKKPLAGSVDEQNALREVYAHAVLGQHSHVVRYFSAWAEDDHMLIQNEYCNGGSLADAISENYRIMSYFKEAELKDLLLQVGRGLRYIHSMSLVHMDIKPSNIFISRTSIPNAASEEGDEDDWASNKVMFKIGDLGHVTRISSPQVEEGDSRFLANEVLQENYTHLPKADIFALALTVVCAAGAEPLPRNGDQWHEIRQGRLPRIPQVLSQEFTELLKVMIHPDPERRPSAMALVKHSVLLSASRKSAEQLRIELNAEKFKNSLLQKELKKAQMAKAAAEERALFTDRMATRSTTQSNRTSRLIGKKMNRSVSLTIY

| SMILES | IC50 ([1]; read-out: Wee-1 IC50 activity) [nM] | IC50 [2] [nM] | IC50 [3] [nM] | microsomal CLint at 1 μM [4] [µL/min/mg] | hepatocyte CLint [5] [µL/min/1e6 cells] | bioavailability [6] [%] | hepatocyte CLint [7] [µL/min/1e6 cells] | IC50 [1] [nM] | time dependent inhibition of CYP3A4: shift in IC50 [8] [fold] | time dependent inhibition of CYP2C19: shift in IC50 [9] [fold] | time dependent inhibition of CYP2C9: shift in IC50 [10] [fold] | time dependent inhibition of CYP2D6: shift in IC50 [11] [fold] |
| --- | --- | --- | --- | --- | --- | --- | --- | --- | --- | --- | --- | --- |
| Cc1cn(-c2c(Cl)cccc2Cl)c(=O)c2cnc(Nc3ccc(N4CCNCC4)cc3)nc12 [Example 2, 6-(2,6-Dichlorophenyl)-8-methyl-2-((4-(piperazin-1-yl)phenyl)amino)pyrido[4,3-d]pyrimidin-5(6H)-one] | < 10 | 100 to 1000 | ≥ 10000 | ≤ 20 | – | – | – | – | – | – | – | – |
| Cc1cc(Nc2ncc3c(=O)n(-c4c(Cl)cccc4Cl)ccc3n2)ccc1N1CCNCC1 [Example 7, 6-(2,6-Dichlorophenyl)-2-((3-methyl-4-(piperazin-1-yl)phenyl)amino)pyrido[4,3-d]pyrimidin-5(6H)-one] | < 10 | ≤ 100 | 1000 to 10000 | ≤ 20 | < 40 | > 25 | < 20 | – | – | – | – | – |
| CN1CCN(c2ccc(Nc3ncc4c(=O)n(-c5c(Cl)cccc5Cl)ccc4n3)cc2CO)CC1 [Example 8, 6-(2,6-Dichlorophenyl)-2-((3-(hydroxymethyl)-4-(4-methylpiperazin-1-yl)phenyl)amino)pyrido[4,3-d]pyrimidin-5(6H)-one] | < 10 | 100 to 1000 | – | ≤ 20 | < 40 | – | < 20 | – | – | – | – | – |
| CN1CCC(c2ccc(Nc3ncc4c(=O)n(-c5c(Cl)cccc5Cl)ccc4n3)cc2)CC1 [Example 10, 6-(2,6-Dichlorophenyl)-2-((4-(1-methylpiperidin-4-yl)phenyl)amino)pyrido[4,3-d]pyrimidin-5(6H)-one, HCl] | < 10 | 100 to 1000 | 1000 to 10000 | ≤ 20 | – | – | – | – | – | – | – | – |
| CN(C)CCc1ccc(Nc2ncc3c(=O)n(-c4c(Cl)cccc4Cl)ccc3n2)cc1 [Example 11, 6-(2,6-Dichlorophenyl)-2-((4-(2-(dimethylamino)ethyl)phenyl)amino)pyrido[4,3-d]pyrimidin-5(6H)-one, HCl] | 10 to 200 | 100 to 1000 | 1000 to 10000 | > 20 | – | – | – | – | – | – | – | – |
| COc1cc(Nc2ncc3c(=O)n(-c4c(Cl)cccc4Cl)ccc3n2)ccc1N1CCN(C)CC1 [Example 12, 6-(2,6-Dichlorophenyl)-2-((3-methoxy-4-(4-methylpiperazin-1-yl)phenyl)amino)pyrido[4,3-d]pyrimidin-5(6H)-one, HCl] | – | ≤ 100 | 1000 to 10000 | > 20 | – | – | – | 10 to 200 | – | – | – | – |
| COc1cc(Nc2ncc3c(=O)n(-c4c(Cl)cccc4Cl)ccc3n2)ccc1N1CCNCC1 [Example 13, 6-(2,6-Dichlorophenyl)-2-((3-methoxy-4-(piperazin-1-yl)phenyl)amino)pyrido[4,3-d]pyrimidin-5(6H)-one, HCl] | < 10 | ≤ 100 | ≥ 10000 | ≤ 20 | < 40 | > 25 | < 20 | – | < 2 | < 2 | < 2 | < 2 |
| CNCCOc1ccc(Nc2ncc3c(=O)n(-c4c(Cl)cccc4Cl)ccc3n2)cc1 [Example 16, 6-(2,6-Dichlorophenyl)-2-((4-(2-(methylamino)ethoxy)phenyl)amino)pyrido[4,3-d]pyrimidin-5(6H)-one, HCl] | – | 100 to 1000 | ≥ 10000 | ≤ 20 | – | – | – | 10 to 200 | – | – | – | – |
| CC(C)N1CCN(c2ccc(Nc3ncc4c(=O)n(-c5c(Cl)cccc5Cl)ccc4n3)cc2)CC1 [Example 17, 6-(2,6-Dichlorophenyl)-2-((4-(4-isopropylpiperazin-1-yl)phenyl)amino)pyrido[4,3-d]pyrimidin-5(6H)-one] | 10 to 200 | 100 to 1000 | 1000 to 10000 | > 20 | – | – | – | – | – | – | – | – |
| O=c1c2cnc(Nc3ccc(N4CCNCC4)c(CO)c3)nc2ccn1-c1c(Cl)cccc1Cl [Example 18, 6-(2,6-Dichlorophenyl)-2-((3-(hydroxymethyl)-4-(piperazin-1-yl)phenyl)amino)pyrido[4,3-d]pyrimidin-5(6H)-one] | < 10 | ≤ 100 | ≥ 10000 | ≤ 20 | < 40 | – | < 20 | – | – | – | – | – |
| O=c1c2cnc(Nc3ccc(N4CCOCC4)cc3)nc2ccn1-c1c(Cl)cccc1Cl [Example 19, 6-(2,6-Dichlorophenyl)-2-((4-morpholinophenyl)amino)pyrido[4,3-d]pyrimidin-5(6H)-one] | – | ≥ 1000 | ≥ 10000 | > 20 | – | – | – | 10 to 200 | – | – | – | – |
| O=c1c2cnc(Nc3cc(F)c(N4CCNCC4)c(F)c3)nc2ccn1-c1c(Cl)cccc1Cl [Example 30, 6-(2,6-Dichlorophenyl)-2-((3,5-difluoro-4-(piperazin-1-yl)phenyl)amino)pyrido[4,3-d]pyrimidin-5(6H)-one] | 10 to 200 | ≥ 1000 | – | ≤ 20 | – | – | – | – | – | – | – | – |
